This passage reports IC50 results from the Kinase Knowledgebase extract (Sharma et al. 2016).

Molecules are shown by their SMILES. Values joined by “and” are separate entries in the source; they are usually repeats but may differ in a detail not shown here. Identical values can stand only once.

For the experiment, the target named is PIK3CA (human) (UniProt P42336). Nature of the experiment: Inhibition of PIK3CA Kinase Activity.
PIK3CA (human), sequence (P42336 whole entry, looked up): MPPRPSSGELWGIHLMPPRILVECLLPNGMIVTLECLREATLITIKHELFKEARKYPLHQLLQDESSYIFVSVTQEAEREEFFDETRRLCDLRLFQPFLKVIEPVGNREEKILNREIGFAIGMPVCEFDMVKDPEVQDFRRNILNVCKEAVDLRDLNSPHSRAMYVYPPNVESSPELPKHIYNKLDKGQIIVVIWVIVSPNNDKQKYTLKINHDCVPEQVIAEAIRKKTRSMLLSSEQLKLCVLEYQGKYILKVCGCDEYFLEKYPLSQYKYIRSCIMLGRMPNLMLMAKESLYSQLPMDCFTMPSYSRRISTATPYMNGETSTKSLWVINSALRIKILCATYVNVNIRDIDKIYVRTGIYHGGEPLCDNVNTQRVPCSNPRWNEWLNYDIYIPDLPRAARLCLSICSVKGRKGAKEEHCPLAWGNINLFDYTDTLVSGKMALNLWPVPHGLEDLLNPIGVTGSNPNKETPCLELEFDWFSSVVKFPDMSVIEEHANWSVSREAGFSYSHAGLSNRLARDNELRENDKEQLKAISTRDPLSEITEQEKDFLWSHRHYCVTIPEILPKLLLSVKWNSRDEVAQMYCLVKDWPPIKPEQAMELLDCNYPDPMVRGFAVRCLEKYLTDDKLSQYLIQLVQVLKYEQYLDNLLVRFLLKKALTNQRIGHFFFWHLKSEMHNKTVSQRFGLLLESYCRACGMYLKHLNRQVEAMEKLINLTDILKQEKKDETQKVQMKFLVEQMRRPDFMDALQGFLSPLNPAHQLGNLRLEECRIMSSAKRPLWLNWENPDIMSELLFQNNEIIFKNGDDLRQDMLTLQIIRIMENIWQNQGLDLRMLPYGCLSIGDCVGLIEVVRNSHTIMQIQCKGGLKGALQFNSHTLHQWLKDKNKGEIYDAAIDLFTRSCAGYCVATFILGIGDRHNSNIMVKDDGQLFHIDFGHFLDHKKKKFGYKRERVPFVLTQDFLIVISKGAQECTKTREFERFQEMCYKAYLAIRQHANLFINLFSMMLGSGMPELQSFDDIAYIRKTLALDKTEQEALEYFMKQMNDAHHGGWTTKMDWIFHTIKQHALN

Compound `Cc1nc(-c2cn3c(n2)-c2cc([C@H](C)N4CCN(C(C)(C)CO)CC4)c(F)cc2OCC3)n(C(C)C)n1` had a half-inhibitory concentration (IC50) of 422 nM. In the case of `CC(C)n1nc(N)nc1-c1cn2c(n1)-c1ccc(-c3ccnn3C3CCN(C(C)(C)C)CC3)cc1OCC2`, the 50% inhibitory concentration (IC50) is 80.9 nM. The result for `Cc1nc(-c2cn3c(n2)-c2ccc(-c4cnn(C)c4N4CCN(C)[C@H](C(C)C)C4)cc2OCC3)n(C(C)C)n1` reads 2.34 nM; that for `CCN1CCN(C(C)c2cc3c(cc2F)OCCn2cc(-c4nc(C)nn4C(C)C)nc2-3)CC1` (stereo not drawn), 86.8 nM; that for `Cc1nc(-c2cn3c(n2)-c2cc(-c4ccnn4[C@@H]4CCCN(C(C)(C)CO)C4)c(F)cc2OCC3)n(C(C)C)n1`, 47.4 nM and 19.3 nM. For `Cc1nc(-c2cn3c(n2)-c2ccc(N4CCCC4C4CCN(CC(C)(C)O)CC4)cc2OCC3)n(C(C)C)n1` (stereo not drawn), the concentration for half-maximal inhibition (IC50) is 74.8 nM and 49.2 nM.

In turn, `Cc1nc(-c2cn3c(n2)-c2ccc(-c4cnn(C)c4C4CCCN(C(C)C)C4)cc2OCC3)n(C(C)C)n1` (stereo not drawn) yielded an IC50 of 57.7 nM. `Cc1nc(-c2cn3c(n2)-c2ccc(N4CCCC45CCCN(C(C)C)C5)cc2OCC3)n(C(C)C)n1` (stereo not drawn) showed an IC50 of 72.8 nM. The result for `Cc1nc(-c2cn3c(n2)-c2ccc(-c4cnn(C)c4[C@@H]4CCCN(C(C)C)C4)cc2OCC3)n(C(C)C)n1` reads 58.8 nM; that for `Cc1nc(-c2cn3c(n2)-c2cc(C(C)N4CCN(C)CC4)c(F)cc2OCC3)n(C(C)C)n1` (stereo not drawn), 49.1 nM. For the compound `Cc1nc(-c2cn3c(n2)-c2ccc(-c4ccnn4[C@H]4CCCN(C(C)(C)CO)C4)cc2OCC3)n(C(C)C)n1`, the IC50 came out at 43 nM. Regarding `Cc1nc(-c2cn3c(n2)-c2ccc(OC4(C)CNC4)cc2OCC3)n(C(C)C)n1`, the IC50 was found to be 6.2 nM. Consider `CC(C)n1ncnc1-c1cn2c(n1)-c1cc([S+]([O-])C3CCN(C(C)(C)C)CC3)ccc1OCC2` (stereo not drawn), for which the 50% inhibitory concentration (IC50) worked out at 149 nM. The result for `Cc1nc(-c2cn3c(n2)-c2ccc(-c4cnn(C(C)C)c4CN4CCN(C)CC4)cc2OCC3)n(C(C)C)n1` reads 112 nM.

Compound `CC(C)n1ncnc1-c1cn2c(n1)-c1cc(C(=O)N3CCN(C(C)(C)C)CC3)ccc1OCC2` registered a concentration for half-maximal inhibition (IC50) of 24.9 nM. `Cc1nc(-c2cn3c(n2)-c2ccc(-c4cnn(C)c4C4CCCCN4CC(C)(C)O)cc2OCC3)n(C(C)C)n1` (stereo not drawn) showed an IC50 of 11.2 nM.

In the case of `Cc1nc(-c2cn3c(n2)-c2cc([C@@H](C)N4CCN(CC(C)(C)O)CC4)c(F)cc2OCC3)n(C(C)C)n1`, the IC50 amounted to 182 nM. `Cc1nc(-c2cn3c(n2)-c2cc(C(C)N4CCN(C(C)(C)C)CC4)c(F)cc2OCC3)n(C(C)C)n1` (stereo not drawn) yielded an IC50 of 250 nM. Take `Cc1nc(-c2cn3c(n2)-c2cc([C@@H](C)N4CCN(C(C)C)CC4)c(C)cc2OCC3)n(C(C)C)n1`: the half-maximal inhibitory concentration (IC50) was 90 nM.

The compound `Cc1nc(-c2cn3c(n2)-c2cc([C@H](C)N4CCN(C(C)(C)CO)CC4)ncc2OCC3)n(C(C)C)n1` came in with a 50% inhibitory concentration (IC50) of 180 nM. Compound `Cc1nc(-c2cn3c(n2)-c2ccc(N4CCC[C@H]4CN4CCCC4)cc2OCC3)n(C(C)C)n1` showed a half-maximal inhibitory concentration (IC50) of 6.32 nM.

With `CCN(CC)C1CCOC(c2c(-c3ccc4c(c3)OCCn3cc(-c5nc(C)nn5C(C)C)nc3-4)cnn2C)C1` (stereo not drawn), the IC50 was 64.5 nM and 65.8 nM and 54.8 nM. In the case of `Cc1nc(-c2cn3c(n2)-c2cc([C@@H](C)N4CCN(C(C)(C)C)CC4)c(F)cc2OCC3)n(C(C)C)n1`, the IC50 was 372 nM.

On to `Cc1cc2c(cc1-c1ccnn1C1CCN(C)CC1)OCCn1cc(-c3ncnn3C(C)C)nc1-2`, for which the IC50 was determined as 173 nM.

`Cc1nc(-c2cn3c(n2)-c2ccc(-c4ccnn4C4CCCN(Cc5ccccc5)C4)cc2OCC3)n(C(C)C)n1` (stereo not drawn) came in with a half-maximal inhibitory concentration (IC50) of 186 nM. The result for `Cc1nc(-c2cn3c(n2)-c2cc(-c4ccnn4[C@H]4CCCN(C5COC5)C4)c(F)cc2OCC3)n(C(C)C)n1` reads 207 nM; that for `Cc1nc(-c2cn3c(n2)-c2cc([C@@H](C)N4CCN(C(C)(C)C)CC4)c(C)cc2OCC3)n(C(C)C)n1`, 52.2 nM.

Regarding `CC(C)n1nc(N)nc1-c1cn2c(n1)-c1ccc(-c3ccnn3C3CCN(C)CC3)cc1OCC2`, the IC50 was determined as 38.5 nM. In the case of `Cc1nc(-c2cn3c(n2)-c2ccc(-c4ccnn4[C@@H]4CCCN(C(C)(C)CO)C4)cc2OCC3)n(C(C)C)n1` it was 10.8 nM; in that of `Cc1nc(-c2cn3c(n2)-c2ccc(N4CCC[C@@H]4C4CCN(C(C)C)CC4)cc2OCC3)n(C(C)C)n1`, 21.9 nM; in that of `Cc1nc(-c2cn3c(n2)-c2cc(C(C)N4CCN(CC(C)(C)O)CC4)c(C)cc2OCC3)n(C(C)C)n1` (stereo not drawn), 76.2 nM.

With `Cc1nc(-c2cn3c(n2)-c2ccc(N4CCCC4C4CCN(S(C)(=O)=O)CC4)cc2OCC3)n(C(C)C)n1` (stereo not drawn), the IC50 turned out to be 14.6 nM. The compound `Cc1nc(-c2cn3c(n2)-c2ccc(-c4ccnn4C4CCN(C(C)C)CC4)cc2OCC3)n(C(C)C)n1` showed a half-inhibitory concentration (IC50) of 33.4 nM.

Turning to `Cc1nc(-c2cn3c(n2)-c2ccc(-c4cnn(C)c4C4CCCN(C(C)(C)CO)C4)cc2OCC3)n(C(C)C)n1` (stereo not drawn), the IC50 was 30.9 nM and 92.2 nM and 32 nM. The result for `Cc1nc(-c2cn3c(n2)-c2cc([C@@H](C)N4CCN(C(C)(C)CO)CC4)ncc2OCC3)n(C(C)C)n1` reads 219 nM; that for `Cc1nc(-c2cn3c(n2)-c2cc(-c4cnn(C)c4C4CC(N(C)C)CCO4)c(F)cc2OCC3)n(C(C)C)n1` (stereo not drawn), 9.57 nM. For the compound `Cc1nc(-c2cn3c(n2)-c2ccc(OC4(CC(C)C)CN(C(C)C)C4)cc2OCC3)n(C(C)C)n1`, the IC50 was 278 nM.

In the case of `Cc1nc(-c2cn3c(n2)-c2cc(-c4cnn(C)c4C4CCCN(C(C)C)C4)c(F)cc2OCC3)n(C(C)C)n1` (stereo not drawn), the concentration for half-maximal inhibition (IC50) is 20 nM and 105 nM. The result for `Cc1nc(-c2cn3c(n2)-c2ccc(-c4cnn(C)c4[C@H]4CCCN(C(C)C)C4)cc2OCC3)n(C(C)C)n1` reads 20.7 nM; that for `Cc1nc(-c2cn3c(n2)-c2ccc(-c4ccnn4C4CCCN(C(C)(C)CO)C4)cc2OCC3)n(C(C)C)n1` (stereo not drawn), 14.4 nM; that for `Cc1nc(-c2cn3c(n2)-c2ccc(N4CCC[C@@H]4CN4CCCC4)cc2OCC3)n(C(C)C)n1`, 22 nM. The result for `Cc1nc(-c2cn3c(n2)-c2cc([C@@H](C)N4CCN(C(C)(C)C)CC4)ncc2OCC3)n(C(C)C)n1` reads 80.4 nM; that for `Cc1nc(-c2cn3c(n2)-c2cc(-c4ccnn4[C@@H]4CCCN(C(C)C)C4)c(F)cc2OCC3)n(C(C)C)n1`, 11.4 nM. In the case of `Cc1nc(-c2cn3c(n2)-c2cc([C@H](C)N4CCN(C(C)(C)C)CC4)c(F)cc2OCC3)n(C(C)C)n1`, the IC50 was found to be 247 nM. `Cc1nc(-c2cn3c(n2)-c2ccc(-c4cnc(C)n4C4CCCN(C(C)C)C4)cc2OCC3)n(C(C)C)n1` (stereo not drawn) displayed an IC50 of 145 nM.

`CC(C)n1ncnc1-c1cn2c(n1)-c1cc(CN3CCN(C(C)(C)C)CC3)ccc1OCC2` registered an IC50 of 53.6 nM.

`Cc1nc(-c2cn3c(n2)-c2ccc(N4CCC4C4CCN(C(C)C)CC4)cc2OCC3)n(C(C)C)n1` (stereo not drawn): the IC50 is 15.1 nM. In the case of `COc1cc2c(cc1[C@H](C)N1CCN(C(C)(C)C)CC1)-c1nc(-c3nc(C)nn3C(C)C)cn1CCO2` it was 62 nM and 90.9 nM; in that of `CC(C)n1ncnc1-c1cn2c(n1)-c1ccc(-c3ccccc3S(N)(=O)=O)cc1OCC2`, 242 nM.

For the compound `Cc1nc(-c2cn3c(n2)-c2cc([C@H](C)N4CCN(CC(C)(C)O)CC4)c(F)cc2OCC3)n(C(C)C)n1`, the half-inhibitory concentration (IC50) worked out at 724 nM. The result for `Cc1nc(-c2cn3c(n2)-c2ccc(OC4(CN5CCN(C)CC5)CC4)cc2OCC3)n(C(C)C)n1` reads 86.4 nM. In the case of `Cc1nc(-c2cn3c(n2)-c2cc(-c4ccnn4[C@@H]4CCCN(C5COC5)C4)c(F)cc2OCC3)n(C(C)C)n1` it was 36.7 nM; in that of `Cc1nc(-c2cn3c(n2)-c2ccc(-c4ccnn4C4CCCN(C5(C)COC5)C4)cc2OCC3)n(C(C)C)n1` (stereo not drawn), 44.3 nM; in that of `Cc1nc(-c2cn3c(n2)-c2cc([C@@H](C)N4CCN(C(C)(C)CO)CC4)c(F)cc2OCC3)n(C(C)C)n1`, 263 nM. Take `COc1cc2c(cc1[C@@H](C)N1CCN(C(C)(C)C)CC1)-c1nc(-c3nc(C)nn3C(C)C)cn1CCO2`: the half-inhibitory concentration (IC50) is 97.9 nM and 47.8 nM. Turning to `Cc1nc(-c2cn3c(n2)-c2ccc(-n4ccnc4C4CCCN(C(C)C)C4)cc2OCC3)n(C(C)C)n1` (stereo not drawn), the 50% inhibitory concentration (IC50) worked out at 125 nM. In the case of `Cc1nc(-c2cn3c(n2)-c2cc([C@H](C)N4CCN(C(C)C)CC4)c(C)cc2OCC3)n(C(C)C)n1` it was 8.81 nM; in that of `Cc1nc(-c2cn3c(n2)-c2ccc(N4CCC[C@H]4C4CCN(C(C)C)CC4)cc2OCC3)n(C(C)C)n1`, 20.3 nM; in that of `Cc1nc(-c2cn3c(n2)-c2ccc(N4CCCC4CN(C)C)cc2OCC3)n(C(C)C)n1` (stereo not drawn), 14 nM and 6.62 nM.

Consider `Cc1nc(-c2cn3c(n2)-c2ccc(-c4ccnn4C4CCN(C(C)(C)C)CC4)cc2OCC3)n(C(C)C)n1`, for which the IC50 came out at 44.8 nM.

As to `Cc1nc(-c2cn3c(n2)-c2ccc(-c4cnn(C)c4C4CC(N(C)C(C)C)CCO4)cc2OCC3)n(C(C)C)n1` (stereo not drawn), the 50% inhibitory concentration (IC50) is 219 nM and 49.8 nM and 81.2 nM. The result for `Cc1nc(-c2cn3c(n2)-c2ccc(OC4(CC5CC5)CNC4)cc2OCC3)n(C(C)C)n1` reads 69.3 nM; that for `Cc1nc(-c2cn3c(n2)-c2ccc(-c4cn[nH]c4C4CCCN(C(C)C)C4)cc2OCC3)n(C(C)C)n1` (stereo not drawn), 22.9 nM and 7.46 nM.

Compound `Cc1nc(-c2cn3c(n2)-c2cc([C@H](C)N4CCN(C(C)(C)C)CC4)c(C)cc2OCC3)n(C(C)C)n1` returned a concentration for half-maximal inhibition (IC50) of 24.1 nM. In turn, `Cc1nc(-c2cn3c(n2)-c2ccc(OC4(C)CCN(C(C)C)C4)cc2OCC3)n(C(C)C)n1` (stereo not drawn) gave an IC50 of 9.19 nM. In the case of `Cc1nc(-c2cn3c(n2)-c2ccc(-c4cnn(C(C)C)c4CN4CCN(C(C)(C)C)CC4)cc2OCC3)n(C(C)C)n1` it was 111 nM; in that of `Cc1nc(-c2cn3c(n2)-c2ccc(OC4CC(C)CN(C(C)C)C4)cc2OCC3)n(C(C)C)n1` (stereo not drawn), 32.8 nM.

In turn, `Cc1nc(-c2cn3c(n2)-c2ccc(-c4ncnn4C4CCN(C(C)(C)C)CC4)cc2OCC3)n(C(C)C)n1` showed an IC50 of 837 nM. The result for `Cc1nc(-c2cn3c(n2)-c2cc(C(O)C4CCN(C)CC4)ccc2OCC3)n(C(C)C)n1` (stereo not drawn) reads 193 nM; that for `Cc1nc(-c2cn3c(n2)-c2cc(C(=O)N4CCN(C(C)(C)CO)CC4)c(F)cc2OCC3)n(C(C)C)n1`, 172 nM; that for `CC(C)n1nc(CO)nc1-c1cn2c(n1)-c1ccc(-c3ccnn3C3CCN(C)CC3)cc1OCC2`, 38.5 nM. As for `CC(C)n1ncnc1-c1cn2c(n1)-c1cnc(N3CCCC3C3CCN(C)CC3)cc1OCC2` (stereo not drawn), the IC50 is 13.9 nM. As to `Cc1nc(-c2cn3c(n2)-c2cnc(-c4cnn(C)c4C4CCCN(C(C)C)C4)cc2OCC3)n(C(C)C)n1` (stereo not drawn), the IC50 was found to be 9.19 nM.
